This note sets out measurements from patent US20200390755A1, “COMPOUND FOR TREATING NERVOUS SYSTEM DISEASES AND USE THEREOF” (SHAANXI MICOT TECHNOLOGY CO., LTD., priority 2018, published 2020).

In assay [1] the test system is WT mice. Nature of the assay: In vivo MRI scan and brain volume measurement, WT mice. Also noted: species or system mouse. To be noted: 5 mg/kg/d, administered until 24 weeks, n = 4. The protocol:
7-week-old N171-82Q HD male mice were paired with female B6C3F1/J hybrid mice to obtain newborn mice. From 21 days of age, male mice were housed in separate cages. 0.5 cm of mouse tail tissue was removed to extract DNA to determine the genotype of the mouse, such that N171-82Q HD mice and WT mice needed for the experiment were obtained. The mice were randomly divided into WT Vehicle group (normal mice), WT test compound group (administration group of normal mice, 5 mg/kg/d, n=10), HD Vehicle group (blank group of HD mice, n=15), HD test compound group (administration groups 1-5 of HD mice, 5 mg/kg/d, n=10). The test compound was suspended in 1% CMC-Na solution and administered by intragastric administration until the end of the study. The weights of the mice were measured every week. Behavioral tests were performed at 12 weeks, 18 weeks, and 24 weeks of age to investigate motor function. At 20 weeks, 3 samples of tissue from each group were used for western blotting and immunohistochemistry. At 24 weeks, MRI scans were performed. At the end of the study, the effect of the test compound on the mortality of mice was evaluated. The WT Vehicle group, WT test compound group, HD Vehicle group and HD test compound group were administered until 24 weeks, and 4 mice in each group were taken for in vivo MRI scanning and brain volume measurement. A 9.4 T MRI scanner equipped with three-axis gradient and animal imaging probes was used. The mice were anesthetized with 1% isoflurane. The breath of mice was monitored, and constant temperature was maintained throughout the scan. Three-dimensional T2 weighted fast spin echo sequence technology was used to obtain images. The imaging resolution and contrast of this technology were sufficient to automatically describe the volume of the mouse brain and substructures. […] These transformations encoded morphological differences between images and analyzed based on deformation morphological measurements (DBM) to detect regional changes in brain volume. The volume of the whole brain (Brain), […] was analyzed. […]

Assay [2] deals with WT mice. Briefly: Slope balance beam experiment, WT mice. The assay is classed as in vivo, mouse. The conditions noted are these: 5 mg/kg/d intragastric. The protocol:
7-week-old N171-82Q HD male mice were paired with female B6C3F1/J hybrid mice to obtain newborn mice. From 21 days of age, male mice were housed in separate cages. 0.5 cm of mouse tail tissue was removed to extract DNA to determine the genotype of the mouse, such that N171-82Q HD mice and WT mice needed for the experiment were obtained. The mice were randomly divided into WT Vehicle group (normal mice), WT test compound group (administration group of normal mice, 5 mg/kg/d, n=10), HD Vehicle group (blank group of HD mice, n=15), HD test compound group (administration groups 1-5 of HD mice, 5 mg/kg/d, n=10). The test compound was suspended in 1% CMC-Na solution and administered by intragastric administration until the end of the study. The weights of the mice were measured every week. Behavioral tests were performed at 12 weeks, 18 weeks, and 24 weeks of age to investigate motor function. At 20 weeks, 3 samples of tissue from each group were used for western blotting and immunohistochemistry. At 24 weeks, MRI scans were performed. At the end of the study, the effect of the test compound on the mortality of mice was evaluated. The software Sigmaplot 13.0 was used for statistical analysis of the data, and the data of each group was expressed as mean standard error (x±SEM). Behavioral test results were analyzed using two-way (genotype and processing factor) ANOVA and post-ho tests, the comparison and statistics of weight data were performed using two-way (genotype and age) ANOVA of repeated measures, and mortality was counted using Kaplan-Meier method. Other measurement data were analyzed by one-way ANOVA. P<0.05 was considered statistically significant. The motor function of mice was evaluated by the rotarod experiment and three types of balance beam experiments. The shorter the time for mouse to cross the balance beam, and the longer the time to drop, the stronger the coordination ability of the mouse. […] If the time for crossing the beams was greater than 60 seconds, it was recorded as 60 seconds.

For `O=c1cc(-c2ccc(N3CCCCC3)cc2)oc2c(O)c(O)ccc12` [Example 1, 7,8-dihydroxy-2-(4-(piperidin-1-yl)phenyl)-4H-chromen-4-one], in the assay on WT mice [1], the “MRI volume, Neurocortex” value was found to be 20.11 ± 0.377 mm^3. For the same compound, in the assay on WT mice [1], the “MRI volume, Striatum” value is listed as 88.99 ± 0.985 mm^3. The “MRI volume, Whole brain” value in the assay on WT mice [1] is 489.08 ± 7.14 mm^3. Further, the “Time for crossing the beams, slope balance beam” value in the assay on WT mice [2] (12 w) is recorded as 18.82 ± 28.33 s; in the assay with WT mice [2] (18 w), 12.45 ± 6.23 s; in the assay with WT mice [2] (24 w) it was 15.50 ± 6.11 s.
